Results on seven compounds are retold here after paper PMC8584173, “The Cytotoxic Effect of Copper (II) Complexes with Halogenated 1,3-Disubstituted Arylthioureas on Cancer and Bacterial Cells” (International Journal of Molecular Sciences, 2021).

Where “and” joins values, the source holds several entries; their conditions need not be identical. Equal values may be shown once.

Experiment [1] deals with Peroxiredoxin-5, mitochondrial (PRDX5_HUMAN). Briefly: LC–MS proteome analysis, PRDX5. The format is cell-based, Homo sapiens. As to conditions: IC50 concentration, % of control. The method, then:
(§1) Enzymes involved in oxidoreductive potential were analyzed in the cell lysates obtained after treatment cells with selected conjugates for 24 h. Cells were washed with phosphate-buffered saline (PBS) and harvested, then centrifuged at 1000× g for 10 min. Then, lysis buffer (containing protease inhibitor, 1% RIPA Lysis and Extraction Buffer (ThermoFisher)) and cold PBS were added, and samples were sonicated three times in ice bath. Next, the cell lysates were centrifuged at 14,000× g at 4 °C for 15 min, and then supernatants were stored at […] before use. Protein concentration was measured by the Bradford method.
(§2) Normalized protein concentrations (5 µg) from cell lysate were precipitated by ice cold (–20 °C) acetonitrile (ACN, Merck, in ratio 1:4). Then, samples were centrifuged (–9 °C, 30 min., 18,000× g), the supernatant was discarded and ACN excess was evaporated using a vacuum centrifuge (5 min., room temp.). Protein pellet was dissolved in 40 mM ammonium bicarbonate. An amount of 500 mM dithiothreitol (DTT, with final concentration 20 mM) and 1 M iodoacetamide (IAA, with final concentration 40 mM) were used for reduction and alkylation processes. After 16 h of incubation in 37 °C with Trypsin Gold (Promega), digested protein samples were diluted with 0.1% formic acid (ThermoFisher) and centrifuged (+2 °C, 30 min, 18,000× g).
(§3) LC–MS analysis was carried out with the use of nanoUHPLC (nanoElute, Bruker) coupled by CaptiveSpray (Bruker) to ESI-Q-TOF mass spectrometer (Compact, Bruker). Two-column separation method was used, i.e., pre-column (300 µm × 5 mm, C18 PepMap 100, 5 µm, 100Å, Thermo Scientific) and Aurora separation column with CSI fitting (75 µm × 250 mm, C18 1.6 µm) in gradient 2% B to 35% B in 90 min with the 300 nL/min flow rate. Mobile phases (A) 0.1% formic acid in water and (B) 0.1% formic acid in ACN were used.
(§4) Sample ionizations were performed at a gas flow of 3.0 L/min, temperature of 150 °C and voltage of the capillary at 1600 V. The quadrupole energy was fixed to 5.0 eV and collision chamber energy 7.0 eV, with an ion transfer time of 90 µs. The ions were analyzed in the positive polarity mode in the range 150–2200 m/z, with the acquisition frequency of the 1 Hz spectrum, as well as with the autoMS/MS system.
(§5) The collected spectra were analyzed and calibrated using DataAnalysis software (Bruker) and then identified in ProteinScape (Bruker) by the MASCOT server. Protein identification was conducted using the online SwissProt and NCBIprot databases, and their references and biological significance were identified using Reactome.org, String.org and KEGG.

In a further experiment the test system is SW480 cells. Kind of experiment: Annexin V-FITC/PI flow cytometry, SW480. The format is cell-based, human. As to conditions: for apoptosis of SW480 cells: at 4 μM (supplement text). The method, then: The cells were cultured and harvested under the conditions described in the cell culture section. […] The effect of these compounds on the process of early and late apoptosis and necrosis was determined, as described previously, by dual staining with annexin V-FITC and propidium iodide according to manufacturer’s protocol (Becton Dickinson). The cells that were annexin V-FITC positive and PI-negative were identified as early apoptotic and annexin V-FITC and PI-positive as late apoptotic or necrotic.

Another experiment has as its system SW620 cells. Briefly: LDH release assay, SW620. It counts as cell-based, human. As to conditions: 72 h. As for the experimental part: The presence of lactate dehydrogenase (LDH) in culture medium indicates a disturbance of the integrity of the cellular membrane. The LDH activity was performed after 72 h incubation of cells (1 × 10^4 cells per well) in 96-well plates with selected compounds according to manufacturer’s protocol (Roche Diagnostics, Germany), as was described by Chrzanowska et al.. Compound mediated cytotoxicity was determined using equation: ((A test sample−A low control)/ (A high control−A low control)) × 100% (A-absorbance), where “low control” means cells in medium with 2% FBS without tested compounds, and “high control” means cells incubated in medium with 2% FBS and 1% Triton X-100 (100% LDH release). The cytotoxicity was expressed as percentage of LDH release as compared with the maximum release of LDH from Triton-X-100-treated cells.

The subject of experiment [2] is clinical methicillin-resistant strains of S. aureus (MRSA) and S. epidermidis (MRSE). Kind of experiment: MIC, clinical strains. The format is cell-based, Staphylococcus. The method, then: (§6) The antimicrobial activity of the compounds was tested on Gram-positive bacteria (Staphylococcus aureus NCTC 4163, Staphylococcus aureus ATCC 25923, Staphylococcus aureus ATCC 6538, Staphylococcus aureus ATCC 29213, Staphylococcus epidermidis ATCC 12228, Staphylococcus epidermidis ATCC 35984), Gram-negative rods (Escherichia coli ATCC 10538, Escherichia coli ATCC 25922, Pseudomonas aeruginosa ATCC 15442, Pseudomonas aeruginosa ATCC 27863) and yeasts (Candida albicans ATCC 10231, Candida albicans ATCC 90028, Candida parapsilosis ATCC 22019). Hospital methicillin-resistant strains of Staphylococcus aureus and Staphylococcus epidermidis were obtained from the collection of the Department of Pharmaceutical Microbiology, Medical University of Warsaw, Poland.
(§7) Antifungal activities were assessed using Mueller–Hinton agar + 2% glucose and 0.5 µg/mL methylene blue dye medium. Sterile filter paper discs (9 mm diameter, Whatman Number 3 chromatography paper) were dripped with tested compound solutions (in dimethylsulfoxide, DMSO) to load 400 μg of a given compound per disc. Dry discs were placed on the surface of appropriate agar medium. The results (diameter of the growth inhibition zone) were read after 18 h of incubation at 35 °C. Minimal inhibitory concentration (MIC) was tested by the twofold serial microdilution method (in 96-well microtiter plates) using Mueller–Hinton broth medium (Beckton Dickinson) for bacteria or RPMI-1640 medium for Candida species, according to CLSI guidelines. The stock solution of tested agent was prepared in DMSO and diluted in sterile water. […] The final inoculum of all studied microorganisms was 10^5 CFU/ mL^−1 (colony forming units per ml). Minimal inhibitory concentrations (the lowest concentration of a tested agent that prevents visible growth of a microorganism) were read after 18 h (bacteria) or 24 h (yeasts) of incubation at 35 °C.

The test system of experiment [3] is Glutathione S-transferase P (GSTP1_HUMAN). Kind of experiment: LC–MS proteome analysis, GSTP1. The format is cell-based, Homo sapiens. As to conditions: IC50 concentration, % of control. As for the experimental part:
as §1, §2, §3, §4, §5

Experiment [4] concerns Peroxiredoxin-6 (PRDX6_HUMAN). Kind of experiment: LC–MS proteome analysis, PRDX6. It counts as cell-based, Homo sapiens. As to conditions: IC50 concentration, % of control. As for the experimental part: as §1, §2, §3, §4, §5
In experiment [5] the test system is Superoxide dismutase [Mn], mitochondrial (SODM_HUMAN). Kind of experiment: LC–MS proteome analysis, SODM. As to conditions: IC50 concentration, % of control. It counts as cell-based, Homo sapiens. As for the experimental part: as §1, §2, §3, §4, §5
Experiment [6] concerns hospital S. aureus (MRSA). Kind of experiment: MIC, hospital S. aureus. The format is cell-based, Staphylococcus aureus. As to conditions: clinical S. aureus rods (six for 1–4, 7, 8). As for the experimental part:
as §6, §7

As a reminder, the MIC is the lowest concentration that inhibits growth of the organism. High values mean weaker potency, low ones greater potency. Regarding `O=[N+]([O-])c1cc([N+]2=C(Nc3ccccc3Br)[S][Cu-2]23[S]C(Nc2ccccc2Br)=[N+]3c2ccc(Cl)c([N+](=O)[O-])c2)ccc1Cl` [Compound 1, Copper (II) complex with 1-(2-bromophenyl)-3-(4-chloro-3-nitrophenyl)thiourea], the “Protein Intensity, % (PRDX5)” value in experiment [1] (PC3, 24 h) is 29% and 29.3%; in experiment [1] (SW480, 24 h), 77.3%; in experiment [1] (SW620, 24 h), 88.3%. Further, the “early apoptosis, % of cells” value in the experiment with SW480 cells (SW480, IC50 dose, 72 h) is on record as 45.18% ± 3.9%. The “apoptosis of SW480 cells” value in the experiment with SW480 cells was determined as 47%. Also, the LDH release with SW620 cells (SW620, 10 μM) came to 22%; with SW620 cells (SW620, 60 μM), 48%. Besides, the MIC in experiment [2] lay within 4 to 8 µg/mL. Further, the “Protein Intensity, % (GSTP1)” value was 95.0% in experiment [3] (PC3, 24 h); 84.8% in experiment [3] (SW480, 24 h); 74.4% in experiment [3] (SW620, 24 h). Also, the “Protein Intensity, % (PRDX6)” value in experiment [4] (PC3, 24 h) was 66.6%; in experiment [4] (SW480, 24 h) it was 75.1%; in experiment [4] (SW620, 24 h) it was 83.2%. For the same compound, the “Protein Intensity, % (SODM)” value was 29% and 29.1% in experiment [5] (PC3, 24 h); 67.8% in experiment [5] (SW480, 24 h); 88.8% in experiment [5] (SW620, 24 h).

Take `O=[N+]([O-])c1cc([N+]2=C(Nc3cccc(Br)c3)[S][Cu-2]23[S]C(Nc2cccc(Br)c2)=[N+]3c2ccc(Cl)c([N+](=O)[O-])c2)ccc1Cl` [Compound 2, Copper (II) complex with 1-(3-bromophenyl)-3-(4-chloro-3-nitrophenyl)thiourea]: the MIC in experiment [2] lay within 4 to 8 µg/mL.

Compound `O=[N+]([O-])c1cc([N+]2=C(Nc3ccc(F)c(Cl)c3)[S][Cu-2]23[S]C(Nc2ccc(F)c(Cl)c2)=[N+]3c2ccc(Cl)c([N+](=O)[O-])c2)ccc1Cl` [Compound 4, Copper (II) complex with 1-(3-chloro-4-fluorophenyl)-3-(4-chloro-3-nitrophenyl)thiourea] registered an MIC in experiment [2] of 4 to 8 µg/mL.

With `O=[N+]([O-])c1cc([N+]2=C(Nc3ccc(Cl)c(Cl)c3)[S][Cu-2]23[S]C(Nc2ccc(Cl)c(Cl)c2)=[N+]3c2ccc(Cl)c([N+](=O)[O-])c2)ccc1Cl` [Compound 5, Copper (II) complex with 1-(4-chloro-3-nitrophenyl)-3-(3,4-dichlorophenyl)thiourea], the “times stronger / more potent than ciprofloxacin” value in experiment [6] is on record as 4–16 times.

As to `O=[N+]([O-])c1cc(NC2=[N+](c3ccc(Cl)c([N+](=O)[O-])c3)[Cu-2]3([S]2)[S]C(Nc2ccc(Cl)c([N+](=O)[O-])c2)=[N+]3c2ccc(Cl)c([N+](=O)[O-])c2)ccc1Cl` [Compound 6, Copper (II) complex with 1,3-bis(4-chloro-3-nitrophenyl)thiourea], in experiment [6], the “times stronger / more potent than ciprofloxacin” value was 4–16 times.

Consider `O=[N+]([O-])c1cc([N+]2=C(Nc3ccccc3F)[S][Cu-2]23[S]C(Nc2ccccc2F)=[N+]3c2ccc(Cl)c([N+](=O)[O-])c2)ccc1Cl` [Compound 7, Copper (II) complex with 1-(2-fluorophenyl)-3-(4-chloro-3-nitrophenyl)thiourea], for which the “Protein Intensity, % (PRDX5)” value in experiment [1] (PC3, 24 h) is given as 36.7%; in experiment [1] (SW480, 24 h), 91.0%; in experiment [1] (SW620, 24 h), 81.4%. Besides, the “early apoptosis, % of cells” value in the experiment with SW480 cells (SW480, IC50 dose, 72 h) is reported as no more than 40%. This compound also showed an LDH release with SW620 cells (SW620, 60 μM) of 30.2%. The MIC in experiment [2] was 4 to 8 µg/mL. The “Protein Intensity, % (GSTP1)” value in experiment [3] (PC3, 24 h) stood at 35.8%; in experiment [3] (SW480, 24 h), 80.9%; in experiment [3] (SW620, 24 h), 67.3%. The “Protein Intensity, % (PRDX6)” value in experiment [4] (PC3, 24 h) turned out to be 35.0%; in experiment [4] (SW480, 24 h) it was 68.3%; in experiment [4] (SW620, 24 h) it was 67.5%. For the same compound, the “Protein Intensity, % (SODM)” value in experiment [5] (PC3, 24 h) worked out at 25.2%; in experiment [5] (SW480, 24 h), 65.1%; in experiment [5] (SW620, 24 h), 45.3%.

As to `O=[N+]([O-])c1cc([N+]2=C(Nc3ccc(I)cc3)[S][Cu-2]23[S]C(Nc2ccc(I)cc2)=[N+]3c2ccc(Cl)c([N+](=O)[O-])c2)ccc1Cl` [Compound 8, Copper (II) complex with 1-(4-iodophenyl)-3-(4-chloro-3-nitrophenyl)thiourea], the “Protein Intensity, % (PRDX5)” value was found to be 42.0% in experiment [1] (PC3, 24 h); 81.7% in experiment [1] (SW480, 24 h); 74.4% in experiment [1] (SW620, 24 h). The “early apoptosis, % of cells” value in the experiment on SW480 cells (SW480, IC50 dose, 72 h) was 48.9% ± 3.4%. Besides, the “late apoptosis, % of cells” value in the experiment with SW480 cells (SW480, IC50 dose, 72 h) is listed as 20.7% ± 2.8%. In the experiment on SW480 cells, the “apoptosis of SW480 cells” value was determined as 47%. Moreover, the LDH release in the experiment with SW620 cells (SW620, 10 μM) was 23%; with SW620 cells (SW620, 60 μM), 42.4%. In addition, the MIC in experiment [2] fell in the range of 4 to 8 µg/mL. Also, the “Protein Intensity, % (GSTP1)” value amounted to 64.1% in experiment [3] (PC3, 24 h); 83.0% in experiment [3] (SW480, 24 h); 57.5% in experiment [3] (SW620, 24 h). Also, the “Protein Intensity, % (PRDX6)” value in experiment [4] (PC3, 24 h) worked out at 53.7%; in experiment [4] (SW480, 24 h) it was 71.1%; in experiment [4] (SW620, 24 h), 77.6%. In addition, the “Protein Intensity, % (SODM)” value in experiment [5] (PC3, 24 h) came out at 29.4%; in experiment [5] (SW480, 24 h), 94.3%; in experiment [5] (SW620, 24 h), 92.7%.
